What was measured:
[1] = test system: JAK1-dependent STAT6 phosphorylation downstream of IL-13 stimulation in BEAS-2B human bronchial epithelial cells; experiment: JAK1 pathway assay in BEAS-2B cells (IL-13 stimulated STAT6 phosphorylation, MSD); format: cell-based; details: read-out: P-STAT6 BEAS2B + IL13 IC50
Procedure, shortened: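 BEAS-2B human bronchial epithelial cells, plated the day before in complete growth medium, were preincubated with compound for 1 hr at 37° C (0.2% DMSO final), then stimulated with IL-13 at its EC90 for 15 min. STAT6 phosphorylation in lysates was read by MSD; EC50 was taken as 50% inhibition versus DMSO control.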

[2] = biological target: T1, isolated recombinant JAK1 kinase domain (Homo sapiens, UniProt P23458); experiment: JAK1 enzyme assay (Caliper LabChip, Ki); format: biochemical; details: recombinant JAK1 kinase domain, 25 μM ATP
T1 construct: The activity of the isolated recombinant JAK1 and JAK2 kinase domain was measured
T1 sequence (P23458 875-1153 limits assumed): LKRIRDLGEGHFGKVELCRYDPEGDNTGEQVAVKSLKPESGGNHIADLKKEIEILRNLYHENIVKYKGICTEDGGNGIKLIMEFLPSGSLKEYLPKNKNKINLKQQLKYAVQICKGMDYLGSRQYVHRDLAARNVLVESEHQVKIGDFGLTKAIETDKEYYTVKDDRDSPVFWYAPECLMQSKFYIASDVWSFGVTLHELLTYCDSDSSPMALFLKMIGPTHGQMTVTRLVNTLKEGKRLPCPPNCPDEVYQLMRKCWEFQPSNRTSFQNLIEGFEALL
Procedure, shortened: (§1)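 Ki values fitted with Morrison tight-binding equation adjusted for ATP-competitive inhibition, using product-to-total peptide ratio read by Caliper LabChip. Reactions: isolated JAK1 or JAK2 kinase domain with N-terminal 5-carboxyfluorescein JAK3-derived peptide, 22° C for 30 min, quenched by EDTA.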

[3] = biological target: T2, isolated recombinant JAK2 kinase domain (Homo sapiens, UniProt O60674); experiment: JAK2 enzyme assay (Caliper LabChip, Ki); format: biochemical; details: 25 μM ATP
T2 construct: The activity of the isolated recombinant JAK1 and JAK2 kinase domain was measured
T2 sequence (O60674 849-1124 limits assumed): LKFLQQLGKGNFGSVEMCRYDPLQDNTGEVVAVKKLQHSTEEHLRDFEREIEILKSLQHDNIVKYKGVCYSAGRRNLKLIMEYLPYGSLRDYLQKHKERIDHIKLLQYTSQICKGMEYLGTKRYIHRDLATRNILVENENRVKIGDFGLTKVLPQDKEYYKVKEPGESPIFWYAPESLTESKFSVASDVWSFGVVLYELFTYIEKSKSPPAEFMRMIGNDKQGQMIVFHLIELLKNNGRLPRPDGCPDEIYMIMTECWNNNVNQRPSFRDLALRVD
Procedure, shortened: as §1

## O=C(Nc1cn(CC(=O)N2CCN(CCN3CCOCC3)CC2)nc1-c1cc(SC2CC2)ccc1OC(F)F)c1cnn2cccnc12 [Example 163, N-[3-[5-(cyclopropylsulfanyl)-2-(difluoromethoxy)phenyl]-1-(2-[4-[2-(morpholin-4-yl)ethyl]piperazin-1-yl]-2-oxoethyl)-1H-pyrazol-4-yl]pyrazolo[1,5-a]pyrimidine-3-carboxamide]
[1]
  IC50: 24 nM
[2]
  Ki: 0.43 nM
[3]
  Ki: 0.94 nM

## CN1CCN(C2CCN(C(=O)Cn3cc(NC(=O)c4cnn5cccnc45)c(-c4cc(SC5CC5)ccc4OC(F)F)n3)CC2)CC1 [Example 164, N-[3-[5-cyclopropylsulfanyl-2-(difluoromethoxy)phenyl]-1-[2-[4-(4-methylpiperazin-1-yl)-1-piperidyl]-2-oxo-ethyl]pyrazol-4-yl]pyrazolo[1,5-a]pyrimidine-3-carboxamide]
[1]
  IC50: 32 nM
[2]
  Ki: 0.55 nM
[3]
  Ki: 1.5 nM

## O=C(Nc1cn(CC(=O)N2CCN(CC3CCOCC3)CC2)nc1-c1cc(SC2CC2)ccc1OC(F)F)c1cnn2cccnc12 [Example 165, N-[3-[5-cyclopropylsulfanyl-2-(difluoromethoxy)phenyl]-1-[2-oxo-2-[4-(tetrahydropyran-4-ylmethyl)piperazin-1-yl]ethyl]pyrazol-4-yl]pyrazolo[1,5-a]pyrimidine-3-carboxamide]
[1]
  IC50: 20 nM
[2]
  Ki: 0.4 nM
[3]
  Ki: 0.67 nM

## N#CC1(CNC2CCN(C(=O)Cn3cc(NC(=O)c4cnn5cccnc45)c(-c4cc(SC5CC5)ccc4OC(F)F)n3)CC2)CC1 [Example 166, N-[1-[2-[4-[(1-cyanocyclopropyl)methylamino]-1-piperidyl]-2-oxo-ethyl]-3-[5-cyclopropylsulfanyl-2-(difluoromethoxy)phenyl]pyraxol-4-yl]pyrazolo[1,5-a]pyrimidine-3-carboxamide]
[1]
  IC50: 17 nM
[2]
  Ki: 0.29 nM
[3]
  Ki: 0.72 nM

## CC(C)(C#N)CNC1CCN(C(=O)Cn2cc(NC(=O)c3cnn4cccnc34)c(-c3cc(SC4CC4)ccc3OC(F)F)n2)CC1 [Example 167, N-[1-(2-[4-[(2-cyano-2,2-dimethylethyl)amino]piperidin-1-yl]-2-oxoethyl)-3-[5-(cyclopropylsulfanyl)-2-(difluoromethoxy)phenyl]-1H-pyrazol-4-yl]pyrazolo[1,5-a]pyrimidine-3-carboxamide]
[1]
  IC50: 11 nM
[2]
  Ki: 0.28 nM
[3]
  Ki: 0.67 nM

## O=C(Nc1cn(CC(=O)N2CCN(C3CCOCC3)CC2)nc1-c1cc(SC2CC2)ccc1OC(F)F)c1cnn2cccnc12 [Example 168, N-[3-[5-cyclopropylsulfanyl-2-(difluoromethoxy)phenyl]-1-[2-oxo-2-(4-tetrahydropyran-4-ylpiperazin-1-yl)ethyl]pyrazol-4-yl]pyrazolo[1,5-a]pyrimidine-3-carboxamide]
[1]
  IC50: 14 nM
[2]
  Ki: 0.29 nM
[3]
  Ki: 0.46 nM

## CC(F)(F)CNC1CCN(C(=O)Cn2cc(NC(=O)c3cnn4cccnc34)c(-c3cc(SC4CC4)ccc3OC(F)F)n2)CC1 [Example 169, N-[3-[5-cyclopropylsulfanyl-2-(difluoromethoxy)phenyl]-1-[2-[4-(2,2-difluoropropylamino)-1-piperidyl]-2-oxo-ethyl]pyrazol-4-yl]pyrazolo[1,5-a]pyrimidine-3-carboxamide]
[1]
  IC50: 20 nM
[2]
  Ki: 0.43 nM
[3]
  Ki: 0.8 nM

## CN(C)C(=O)CN1CCN(CC2CCN(C(=O)Cn3cc(NC(=O)c4cnn5cccnc45)c(-c4cc(SC5CC5)ccc4OC(F)F)n3)CC2)CC1 [Example 170, N-[3-[5-cyclopropylsulfanyl-2-(difluoromethoxy)phenyl]-1-[2-[4-[[4-[2-(dimethylamino)-2-oxo-ethyl]piperazin-1-yl]methyl]-1-piperidyl]-2-oxo-ethyl]pyrazol-4-yl]pyrazolo[1,5-a]pyrimidine-3-carboxamide]
[1]
  IC50: 25 nM
[2]
  Ki: 0.39 nM
[3]
  Ki: 0.78 nM

## CN(C1CCN(C(=O)Cn2cc(NC(=O)c3cnn4cccnc34)c(-c3cc(SC4CC4)ccc3OC(F)F)n2)CC1)C1COC1 [Example 171, N-[3-[5-cyclopropylsulfanyl-2-(difluoromethoxy)phenyl]-1-[2-[4-[methyl(oxetan-3-yl)amino]-1-piperidyl]-2-oxo-ethyl]pyrazol-4-yl]pyraxolo[1,5-a]pyrimidine-3-carboxamide]
[1]
  IC50: 22 nM
[2]
  Ki: 0.43 nM
[3]
  Ki: 0.78 nM

## CC(=O)N1CCN(CC2CCN(C(=O)Cn3cc(NC(=O)c4cnn5cccnc45)c(-c4cc(SC5CC5)ccc4OC(F)F)n3)CC2)CC1 [Example 172, N-[1-[2-[4-[(4-acetylpiperazin-1-yl)methyl]-1-piperidyl]-2-oxo-ethyl]-3-[5-cyclopropylsulfanyl-2-(difluoromethoxy)phenyl]pyrazol-4-yl]pyrazolo[1,5-a]pyrimidine-3-carboxamide]
[1]
  IC50: 32 nM
[2]
  Ki: 0.45 nM
[3]
  Ki: 0.91 nM

## COC(=O)N1CCN(CC2CCN(C(=O)Cn3cc(NC(=O)c4cnn5cccnc45)c(-c4cc(SC5CC5)ccc4OC(F)F)n3)CC2)CC1 [Example 173, methyl 4-[[1-[2-[3-[5-cyclopropylsulfanyl-2-(difluoromethoxy)phenyl]-4-(pyrazolo[1,5-a]pyrimidine-3-carbonylamino)pyrazol-1-yl]acetyl]-4-piperidyl]methyl]piperazine-1-carboxylate]
[1]
  IC50: 17 nM
[2]
  Ki: 0.33 nM
[3]
  Ki: 0.83 nM

## O=C(Nc1cn(Cc2cn(C3CCN(C4COC4)CC3)nn2)nc1-c1cc(SC2CC2)ccc1OC(F)F)c1cnn2cccnc12 [Example 174, N-[3-[5-cyclopropylsulfanyl-2-(difluoromethoxy)phenyl]-1-[[1-[1-(oxetan-3-yl)-4-piperidyl]triazol-4-yl]methyl]pyrazol-4-yl]pyrazolo[1,5-a]pyrimidine-3-carboxamide]
[1]
  IC50: 11 nM
[2]
  Ki: 0.27 nM
[3]
  Ki: 0.21 nM

## O=C(Nc1c[nH]nc1-c1cc(SC2COC2)ccc1OC(F)F)c1cnn2cccnc12 [Example 175, N-[3-[2-(difluoromethoxy)-5-(oxetan-3-ylsulfanyl)phenyl]-1H-pyrazol-4-yl]pyrazolo[1,5-a]pyrimidine-3-carboxamide]
[1]
  IC50: 9.5 nM
[2]
  Ki: 0.23 nM
[3]
  Ki: 0.11 nM

## CN1CCC[C@@H]1Cn1cc(NC(=O)c2cnn3cccnc23)c(-c2cc(SC3COC3)ccc2OC(F)F)n1 [Example 176, N-[3-[2-(difluoromethoxy)-5-(oxetan-3-ylsulfanyl)phenyl]-1-[[(2R)-1-methylpyrrolidin-2-yl]methyl]pyrazol-4-yl]pyrazolo[1,5-a]pyrimidine-3-carboxamide]
[1]
  IC50: 28 nM
[2]
  Ki: 0.38 nM
[3]
  Ki: 1.4 nM

## O=C(Nc1cn(CCN[C@@H]2CCOC2)nc1-c1cc(SC2COC2)ccc1OC(F)F)c1cnn2cccnc12 [Example 177, N-[3-[2-(difluoromethoxy)-5-(oxetan-3-ylsulfanyl)phenyl]-1-[2-[[(3R)-tetrahydrofuran-3-yl]amino]ethyl]pyrazol-4-yl]pyrazolo[1,5-a]pyrimidine-3-carboxamide]
[1]
  IC50: 18 nM
[2]
  Ki: 0.81 nM
[3]
  Ki: 0.48 nM

## CNCCn1cc(NC(=O)c2cnn3cccnc23)c(-c2cc(SC3COC3)ccc2OC(F)F)n1 [Example 178, N-[3-[2-(difluoromethoxy)-5-(oxetan-3-ylsulfanyl)phenyl]-1-[2-(methylamino)ethyl]pyrazol-4-yl]pyrazolo[1,5-a]pyrimidine-3-carboxamide]
[1]
  IC50: 9 nM
[2]
  Ki: 0.36 nM
[3]
  Ki: 0.64 nM

## O=C(Nc1cn(CCN[C@H]2C[C@H](O)C2)nc1-c1cc(SC2COC2)ccc1OC(F)F)c1cnn2cccnc12 [Example 179, N-[3-[2-(difluoromethoxy)-5-(oxetan-3-ylsulfanyl)phenyl]-1-(2-[[trans-3-hydroxycyclobutyl]amino]ethyl)-1H-pyrazol-4-yl]pyrazolo[1,5-a]pyrimidine-3-carboxamide]
[1]
  IC50: 26 nM
[2]
  Ki: 0.74 nM
[3]
  Ki: 0.59 nM

## O=C(Nc1cn(CCN[C@@H]2CCCOC2)nc1-c1cc(SC2COC2)ccc1OC(F)F)c1cnn2cccnc12 [Example 180, N-[3-[2-(difluoromethoxy)-5-(oxetan-3-ylsulfanyl)phenyl]-1-[2-[[(3R)-tetrahydropyran-3-yl]amino]ethyl]pyrazol-4-yl]pyrazolo[1,5-a]pyrimidine-3-carboxamide]
[1]
  IC50: 14 nM
[2]
  Ki: 1 nM
[3]
  Ki: 0.76 nM

## CCN1CCN(C(=O)Cn2cc(NC(=O)c3cnn4cccnc34)c(-c3cc(SC4COC4)ccc3OC(F)F)n2)CC1 [Example 181, N-[3-[2-(difluoromethoxy)-5-(oxetan-3-ylsulfanyl)phenyl]-1-[2-(4-ethylpiperazin-1-yl)-2-oxo-ethyl]pyrazol-4-yl]pyrazolo[1,5-a]pyrimidine-3-carboxamide]
[1]
  IC50: 83 nM
[2]
  Ki: 0.8 nM
[3]
  Ki: 1.8 nM

## O=C(Nc1cn(CC(=O)N2CCC(N3CCOCC3)CC2)nc1-c1cc(SC2COC2)ccc1OC(F)F)c1cnn2cccnc12 [Example 182, N-[3-[2-(difluoromethoxy)-5-(oxetan-3-ylsulfanyl)phenyl]-1-[2-(4-morpholino-1-piperidyl)-2-oxo-ethyl]pyrazol-4-yl]pyrazolo[1,5-a]pyrimidine-3-carboxamide]
[1]
  IC50: 91 nM
[2]
  Ki: 0.92 nM
[3]
  Ki: 1.9 nM

Reference: patent publication US20180265515A1 (Genentech, Inc., priority 2015, published 2018)
